# Source: patent publication US4746664A, “Substituted-3,4-dihydro-4-(2,4,6-trimethoxyphenylimino)-2(1H)-pyrimidone s useful as cardiotonic, antihypertensive, cerebrovascular vasodilator and anti-platelet agent” (Fujisawa Pharmaceutical Co., Ltd., priority 1983, dated 1988)
# pIC50: −log10 of the molar value. Structures can show the parent of a compound that is named as a salt.
# What was measured:
# [1] = system: Mongrel dogs (left ventricular pressure, dp/dt max); test: Cardiotonic activity (dp/dt max change, anesthetized dogs, i.v.); assay type: in vivo; settings: Canis lupus familiaris, intravenous, read-out: dp/dt M.C. (percentage of dp/dt max changes)
# Procedure: Test Method A (Cardiotonic activity): Mongrel dogs of either sex were anesthetized with sodium pentobarbital, 35 mg/kg, i.p. The animals were allowed to breathe spontaneously. The left carotid artery was isolated and a catheter (USCI, #8F) filled with heparinized saline was inserted and advanced into the left ventricle. the catheter was connected to a pressure transducer (Nihonkohden, MPU-0.5A) to measure the left ventricular pressure, from which dp/dt max was derived by analog computing. To measure the systemic blood pressure the left femoral artery was cannulated. The blood pressure pulse was used to trigger a heart rate meter. Another catheter was positioned in the vena cave through right femoral vein for injection of drugs. Systemic blood pressure, left ventricular pressure, dp/dt max and heart rate were recorded simultaneously on a polygram (Nihonkohden, RJG-4008). Test compound was dissolved in distilled water (0.2 ml/kg) or dimethyl sulfoxide (0.04 ml/kg) and injected into the femoral veing. The parameters after dosing were compared with those during the predosing period. Test results were represented in terms of percentage of dp/dt max changes (dp/dt M.C) calculated by following formula, and are shown in table 1. [formula]
# [2] = system: platelet aggregation induced by collagen; test: Anti-platelet activity: collagen-induced aggregation of rabbit platelet rich plasma; assay type: cell-based; settings: Oryctolagus cuniculus, 2 min, rabbit PRP, collagen 2.5 μg/ml, pH 7.4, 37° C., read-out: ID50 Collagen
# Procedure: (§1) Test Method B (Anti-platellet activity):
# (§2) Platelet rich plasma (PRP) which contains 6.5-7.5×10^8 platelet/ml was prepared from rabbit blood. To the 200 μl of PRP, 5 μl of calcium chloride (1 mM) and 50 μl of pH 7.4 Tris-acetate solution (5 mM) containing 120 mM NaCl and test compound were added successively, and then stirred for 2 min. at 37° C. To the solution, 5 μl of adenosine diphosphate (ADP) (2.5 μM) or collagen (2.5 μg/ml) was added as an aggregation inducer. Aggregation was measured by using an aggregometer (NKK HEMA TRACER 1).
# [3] = system: platelet aggregation induced by adenosine diphosphate (ADP); test: Anti-platelet activity: ADP-induced aggregation of rabbit platelet rich plasma; assay type: cell-based; settings: Oryctolagus cuniculus, 2 min, rabbit PRP, ADP 2.5 μM, pH 7.4, 37° C., read-out: ID50 ADP
# Procedure: as §1, §2
# [4] = system: Mongrel dogs (cerebral blood flow); test: Cerebrovascular vasodilative activity (cerebral blood flow, anesthetized dogs, i.v.); assay type: in vivo; settings: intravenous
# Procedure: Test Method C (Cerebrovescular vasodilative activity):
# Mongrel dogs of either sex were anesthetized with sodium pentobarbital (35 mg/kg. i.p.). After the external carotid artery was ligated, a flowmeter probe was fitted to the common carotid artery. Polyethylene cannulas were inserted in the femoral artery for measurement of blood pressure and in the saphenous vein for injection of drug. Blood pressure was measured with a pressure transducer and the arterial pulse was also used to trigger a heart rate meter. Blood pressure, heart rate and cerebral blood flow (C.B.F.) were recorded on a polygraph.
# Test compound was dissolved in an equimolar solution of hydrochloric acid and diluted with water (0.2 ml/kg), and injected intravenously. The prarmeters after dosing were compared with those during the predosing period.
# [5] = system: uninephrectomized DOCA/saline male Wistar rats (mean arterial pressure); test: Antihypertensive activity (DOCA hypertensive rats, oral); assay type: in vivo; settings: 1.0 mg/kg
# Procedure: Test Method D (Antihypertensive activity):
# Five-week old male Wistar rats were uninephrectomized under anesthesia. Deoxycorticosterone acetate (DOCA) (30 mg/kg), suspended in peanut oil, was injected subcutaneously twice a week and 1% saline was substituted for the drinking water. Animals with mean blood pressure 150-200 mmHg were used for experiment between 5 and 7 weeks after surgery.
# The test compounds were administered orally. Blood pressure was measured at the femoral artery by means of a pressure transducer and recorded as electrically integrated values of mean arterial pressure.
pIC50 [2],pIC50 [3],SMILES,change in vivo at 0.1 mg/kg [1],change in vivo at 1 mg/kg [1],C.B.F. increase ([4]; 0.1 mg/kg),further results
,,"Nc1cc(-c2ccncc2)c[nH]c1=O [Amrinone, 3-Amino-5-(4-pyridyl)-2(1H)-pyridinone, reference compound]",9%,80%,,
6.82,6.62,"COc1ccc(-c2cc(=Nc3c(C)cc(C)cc3C)n(C)c(=O)n2C)cc1OC [Example 48, 3,4-dihydro-6-(3,4-dimethoxyphenyl)-1,3-dimethyl-4-(2,4,6-trimethylphenylimino)-2(1H)-pyrimidinone]",,,57.0%,change in vivo at 0.01 mg/kg [1]: 43%; C.B.F. increase ([4]; 0.01 mg/kg): 40.0%
,,"COc1ccc(-c2cc(=Nc3ccc(Cl)cc3C)n(C)c(=O)n2C)cc1OC [Example 49, 4-(4-Chloro-2-methylphenylimino)-3,4-dihydro-6-(3,4-dimethoxyphenyl)-1,3-dimethyl-2(1H)-pyrimidinone]",68%,,,
,,"COc1ccc(-c2cc(=Nc3cccnc3)n(C)c(=O)n2C)cc1OC [Example 50, 3,4-dihydro-6-(3,4-dimethoxyphenyl)-1,3-dimethyl-4-(3-pyridylimino)-2(1H)-pyrimidinone dihydrochloride]",,98%,,
,,"COc1ccc(-c2cc(=Nc3ccccc3)n(C)c(=O)n2C)cc1OC [Example 55, 3,4-Dihydro-6-(3,4-dimethoxyphenyl)-1,3-dimethyl-4-phenylimino-2(1H)-pyrimidinone]",,,38.0%,C.B.F. increase ([4]; 1.0 mg/kg): 77.0%
,,"COc1ccc(-c2cc(=Nc3cc(OC)c(OC)c(OC)c3)n(C)c(=O)n2C)cc1OC [Example 56, 3,4-Dihydro-6-(3,4-dimethoxyphenyl)-1,3-dimethyl-4-(3,4,5-trimethoxyphenylimino)-2(1H)-pyrimidinone]",44%,88%,50.0%,C.B.F. increase ([4]; 1.0 mg/kg): 52.0%
6.38,6.52,"COc1cc(OC)c(N=c2cc(-c3ccc(OC)c(OC)c3)n(C)c(=O)n2C)c(OC)c1 [Example 57, 3,4-Dihydro-6-(3,4-dimethoxyphenyl)-1,3-dimethyl-4-(2,4,6-trimethoxyphenylimino)-2(1H)-pyrimidinone]",60%,126%,57.0%,Effect Max (maximum decrease of blood pressure) [5]: 44.0%; C.B.F. increase ([4]; 0.01 mg/kg): 59.0%
6.72,6.47,"COc1ccc(-c2cc(=Nc3c(C)cccc3C)n(C)c(=O)n2C)cc1OC [Example 58, 3,4-Dihydro-6-(3,4-dimethoxyphenyl)-1,3-dimethyl-4-(2,6-dimethylphenylimino)-2(1H)-pyrimidinone]",84%,145%,,
6.64,5.44,"COc1ccc(-c2cc(=Nc3ccc(O)cc3)n(C)c(=O)n2C)cc1OC [Example 59, 3,4-Dihydro-6-(3,4-dimethoxyphenyl)-1,3-dimethyl-4-(4-hydroxyphenylimino)-2(1H)-pyrimidinone]",57%,158%,,
,,"COc1ccc(-c2cc(=Nc3c(C)cc(C)cc3C)n(C)c(=O)n2C)cc1 [Example 62, 3,4-Dihydro-1,3-dimethyl-6-(4-methoxyphenyl)-4-(2,4,6-trimethylphenylimino)-2(1H)-pyrimidinone]",,102%,,
,,"COc1ccc(-c2cc(=Nc3c(C)cc(C)cc3C)n(C)c(=O)[nH]2)cc1OC [Example 64, 3,4-Dihydro-6-(3,4-dimethoxyphenyl)-3-methyl-4-(2,4,6-trimethylphenylimino)-2(1H)-pyrimidinone]",98%,93%,,
,,"CCCn1c(-c2ccc(OC)c(OC)c2)cc(=Nc2c(C)cc(C)cc2C)n(C)c1=O [Example 65, 3,4-Dihydro-6-(3,4-dimethoxyphenyl)-3-methyl-1-n-propyl-4-(2,4,6-trimethylphenylimino)-2(1H)-pyrimidinone]",50%,206%,,
,,"COc1ccc(-c2cc(=Nc3c(C)cc(C)cc3C)[nH]c(=O)n2C)cc1OC [Example 69, 3,4-Dihydro-6-(3,4-dimethoxyphenyl)-1-methyl-4-(2,4,6-trimethylphenylimino)-2(1H)-pyrimidinone]",42%,,,change in vivo at 0.01 mg/kg [1]: 45%
6.77,6.10,"CCn1c(-c2ccc(OC)c(OC)c2)cc(=Nc2c(C)cc(C)cc2C)n(C)c1=O [Example 72, 3,4-dihydro-6-(3,4-dimethoxyphenyl)-1-ethyl-3-methyl-4-(2,4,6-trimethylphenylimino)-2(1H)-pyrimidinone]",95%,,35.0%,change in vivo at 0.01 mg/kg [1]: 12%; Effect Max (maximum decrease of blood pressure) [5]: 38.0%; C.B.F. increase ([4]; 1.0 mg/kg): 59.0%
